In brackets after ≈: the same amount, converted by molar mass. Like-named read-outs stand apart in the source and are kept apart here.
Experiments:
Assay type in all cases: cell-based
Acinetobacter baumannii [1] = test: MIC, CLSI microdilution (Tables 1 and 6)
Procedure: (§1) The minimal inhibitory concentration (MIC) of non-toxic iron chelators was determined against standard strains of MDR bacteria and clinical isolates according to the guidelines of the Clinical and Laboratory Standards Institute (CLSI).
(§2) Individual MICs were determined following the microdilution method recommended by CLSI in cationic-adjusted Mueller-Hinton Broth (CAMHB), or M9 media. […] Tests were performed in triplicate. MIC of iron chelators were determined for noscomial ESKAPE pathogens.
(§3) MIC were determined in CAMHB media as described above in Example 8.

E. coli [2] = test: MIC, CLSI microdilution (Tables 1 and 6)
Procedure: as §1, §2, §3

K. pneumonia [3] = test: MIC, CLSI microdilution (Tables 1 and 6); details: Klebsiella pneumoniae
Procedure: as §1, §2, §3

P. aeruginosa [4] = test: MIC, CLSI microdilution (Tables 1 and 6); details: Pseudomonas aeruginosa
Procedure: as §1, §2, §3

S. aureus = test: MIC, CLSI microdilution (Tables 1 and 6); details: Staphylococcus aureus
Procedure: as §1, §2, §3

[5] = system: A. baumannii strain AB19606; test: Growth (OD600) with chelator, Rifampin or both; details: CAMHB
Procedure: A. baumannii strain AB19606 was grown in CAMHB and challenged with 1.5×MIC compound 4 (Var) or 1.5×MIC Triapine (Tri) with or without 0.75×MIC Rifampin (Rif). Growth was estimated by absorbance at 600 nm (y-axis) at 0 or 24 hours.

E. coli strain EC35218 = test: Growth (OD600) with chelator, Rifampin or both; details: CAMHB
Procedure: E. coli strain EC35218 was grown in CAMHB and challenged with 1.5×MIC compound 4 (Var) or 1.5×MIC Triapine (Tri) with or without 0.75×MIC Rifampin (Rif). Growth was estimated by absorbance at 600 nm (y-axis) at 0 or 24 hours.

Acinetobacter baumannii [6] = test: MIC in RPMI1640 media (Table 2)
Procedure: (§4) […] […] Tests were performed in triplicate. MIC of iron chelators were determined for noscomial ESKAPE pathogens.
(§5) This media is closer to the iron levels in the human body. MICs are in ug/mL.

E. coli [7] = test: MIC in RPMI1640 media (Table 2)
Procedure: as §4, §5

K. pneumonia [8] = test: MIC in RPMI1640 media (Table 2); details: Klebsiella pneumoniae
Procedure: as §4, §5

P. aeruginosa [9] = test: MIC in RPMI1640 media (Table 2); details: Pseudomonas aeruginosa
Procedure: as §4, §5

[10] = system: Acinetobacter baumannii strain 5711 (AB5711); test: Growth (OD600) of AB5711 in low iron media with chelators, with or without FeCl3; details: AB5711; low iron media; 100 μM or 200 μM chelator added after 4 hr; 24 hr
Procedure: Acinetobacter baumannii strain 5711 (AB5711) was grown overnight in LB media and sub-cultured into low iron media. The tested iron chelators were deferoxamine (DFO), deferiprone (DFP), 2,2-dipyridyl, and VK28. The iron chelators were added after 4 hr of growth.
Bacterial growth was estimated by absorption at OD600 every 4 hr for 24 hr. Optical density (OD) at 600 nm (OD600) as measured by a spectrophotometer is a widely used technique known by one skilled in the art to estimate the total number of bacterial cells present in a broth culture (CFU/ml). The exact amount of OD produced by a culture will depend on the concentration of cells present, the species and strain of microbe present, the growth conditions used, and the wavelength of the light being transmitted. Thus, the relationship between OD and cell concentrations will depend on the specific strain and growth conditions studied. For example, the OD600 of 1 for E. coli is about 1×10^9 CFU/ml.
This example provides further evidence that the removal of iron is responsible for bacterial growth inhibition. A. baumannii isolate 5711 was grown in low iron M9 media supplemented with 0 μM, 10 μM, or 100 μM FeCl3 with and without the addition of 200 μM VK28 following 4 hr of growth. Growth was estimated by absorbance at 600 nm every 4 hr for 24 hr.
This example provides further evidence that the removal of iron is responsible for bacterial growth inhibition. A. baumannii isolate 5711 was grown in low iron M9 media supplemented with 0 μM, 10 μM, 100 μM, or 1000 μM FeCl3 with and without the addition of 50 μg/ml of VK28 following 4 hr of growth. Growth was estimated by absorbance at 600 nm after 20 hours.

E. coli EC35218 = test: Time-kill assay in CAMHB; details: ¾MIC Rifampicin alone; CAMHB
Procedure: Reductions in colony forming units (CFU)/mL were determined over time (time-kill assay) after exposure to VK28 and deferiprone (DFP), the two iron chelators that performed best in MIC assays when compared to controls. To better represent the iron content found in the human body, MIC and time-kill assays were also determined in minimal media and tissue culture media. Time-Kill assays were performed as previously described in G. P. Neupane et al., “In vitro time-kill activities of ciprofloxacin alone and in combination with the iron chelator deferasirox against Vibrio vulnificus,” European Journal of Clinical Microbiology and Infectious Diseases, 407-410 (2010); and R. L. White, et al., “Comparison of Three Different In Vitro Methods of Detecting synergy: Time-Kill, Checkerboard, and E test,” Journal of Antimicrobial Agents and Chemotherapy, 1914-1918 (1996). Initial inocula, for example 1×10^6 CFU/mL or 1×10^7 CFU/mL were challenged with iron chelator with and/or without an antibiotic. Cells were allowed to grow in CAMHB at 37° C. for 24 hours. Time-kill results were analyzed by determining the change in log 10 numbers of CFU/ml at 0, 6, and 24 h, compared to counts at 0 h. Antimicrobials were considered bactericidal at the lowest concentration that reduced the size of the original inoculum by >3 log 10 CFU/ml (99.9%) over each of the time periods and were considered bacteriostatic if the inoculum's size was reduced by 0 to <3 log 10 CFU/ml.
In this example, time-kill assays were performed as described in Example 9 against different multi-drug resistant bacteria, namely E. coli and MRSA.
In this example, time-kill assays were performed as described in Example 9 using ApoL1 as the iron chelator against two different E. coli strains. […] Time-kill results were analyzed by determining the change in log 10 numbers of CFU/mL at 6 and 24 hours.
In this example, time-kill assays were performed as described in Example 9 using Apo6619 as the iron chelator in combination with Rifampin against E. coli 35718. […] Time-kill results were analyzed by determining the change in log 10 numbers of CFU/mL at 0, 5 and 24 hours.

[11] = system: AB5075, a stain of A. baumannii (Ab); test: Development of rifampin resistance over 7 days (OD600); details: rifampin alone
Procedure: Development of antibiotic-resistant strains is an ongoing problem in the treatment of bacterial infections. In some embodiments, the present technology provides methods and compositions for reducing, inhibiting or preventing formation of antibiotic-resistant bacterial strains. In some embodiments, the iron chelator of the present technology is administered to a patient as a prophylactic before antibiotic treatment or during antibiotic treatment. In some embodiments, the iron chelator is added concurrently with an antibiotic.
Cultures of AB5075, a stain of A. baumannii (Ab), was cultured in the presence of Rifampin alone, the iron chelator ApoL1 alone or Rifampin combination with ApoL1 for 7 days.

[12] = 1.5×MIC chelator in combination with 0.75×MIC Rifampin
[13] = alone: 1.5×MIC chelator or 0.75×MIC Rifampin
[14] = ATCC17978, ATCC 17978, Table 1, read-out: MIC of Iron Chelators
[15] = ATCC19606, ATCC 19606, Table 1, read-out: MIC of Iron Chelators
[16] = Escherichia coli, ATCC35218, ATCC 35218, Table 1, read-out: MIC of Iron Chelators
[17] = Escherichia coli, ATCC43888, ATCC 43888 (0157:H7), Table 1, read-out: MIC of Iron Chelators
[18] = ATCC700603, ATCC 700603, Table 1, read-out: MIC of Iron Chelators
[19] = BAA2146, BAA-2146, Table 1, read-out: MIC of Iron Chelators
[20] = ATCC27853, ATCC 27853, Table 1, read-out: MIC of Iron Chelators
[21] = PAO1, Table 1, read-out: MIC of Iron Chelators
[22] = ATCC25923, ATCC 25923, Table 1, read-out: MIC of Iron Chelators
[23] = ATCC 43300 (MRSA), Table 1, read-out: MIC of Iron Chelators
[24] = ATCC17978, ATCC 17978, read-out: MIC of Iron Chelators
[25] = ATCC19606, ATCC 19606, read-out: MIC of Iron Chelators
[26] = Escherichia coli, 35718, read-out: MIC of Iron Chelators
[27] = Escherichia coli, ATCC43888, ATCC 43888 (0157:H7), read-out: MIC of Iron Chelators
[28] = ATCC700603, ATCC 700603, read-out: MIC of Iron Chelators
[29] = BAA2146, BAA-2146, read-out: MIC of Iron Chelators
[30] = ATCC27853, ATCC 27853, read-out: MIC of Iron Chelators
[31] = PAO1, read-out: MIC of Iron Chelators

| SMILES | reduction of bacteria (absorbance at 600 nm, 24 hours) [5, 13] | reduction of bacteria (absorbance at 600 nm, 24 hours) (E. coli strain EC35218; [13]) | MIC (Acinetobacter baumannii [1]; [14]) | MIC (Acinetobacter baumannii [1]; [15]) | MIC (E. coli [2]; [16]) | MIC (E. coli [2]; [17]) | MIC (K. pneumonia [3]; [18]) | MIC (K. pneumonia [3]; [19]) | MIC (P. aeruginosa [4]; [20]) | MIC (P. aeruginosa [4]; [21]) | MIC (S. aureus; [22]) | MIC (S. aureus; [23]) | MIC (Acinetobacter baumannii [6]; [24]) | MIC (Acinetobacter baumannii [6]; [25]) | MIC (E. coli [7]; [26]) | MIC (E. coli [7]; [27]) | MIC (K. pneumonia [8]; [28]) | MIC (K. pneumonia [8]; [29]) | MIC (P. aeruginosa [9]; [30]) | MIC (P. aeruginosa [9]; [31]) | further results |
| --- | --- | --- | --- | --- | --- | --- | --- | --- | --- | --- | --- | --- | --- | --- | --- | --- | --- | --- | --- | --- | --- |
| NC(=S)N/N=C/c1ncccc1N [Triapine, 3-aminopyridine-2-carboxaldehyde thiosemicarbazone] | no reduction of bacteria | did not result in a reduction of bacteria | – | – | – | – | – | – | – | – | – | – | – | – | – | – | – | – | – | – | MIC (Acinetobacter baumannii [1]; AB19606, CAMHB, read-out: MIC): 32 µg/mL (≈ 164 µM); MIC (E. coli [2]; EC43888, CAMHB): 125 µg/mL (≈ 640 µM); MIC (E. coli [2]; Escherichia coli, EC35218, CAMHB, read-out: MIC): 125 µg/mL (≈ 640 µM); MIC (K. pneumonia [3]; KP700603, CAMHB, read-out: MIC): 250 µg/mL (≈ 1280 µM); MIC (P. aeruginosa [4]; PA27853, CAMHB, read-out: MIC): 250 µg/mL (≈ 1280 µM); MIC (S. aureus; SA43300, CAMHB, read-out: MIC): 125 µg/mL (≈ 640 µM); reduction of bacteria (absorbance at 600 nm, 24 hours) [5, 12]: significant reduction in bacteria; reduction of bacteria (absorbance at 600 nm, 24 hours) (E. coli strain EC35218; [12]): significant reduction in bacteria |
| CC(=O)N(O)CCCCCNC(=O)CCC(=O)N(O)CCCCCNC(=O)CCC(=O)N(O)CCCCCN [DFO, deferoxamine] | – | – | > 500 µg/mL | > 500 µg/mL | > 500 µg/mL | > 500 µg/mL | > 500 µg/mL | > 500 µg/mL | > 500 µg/mL | > 500 µg/mL | > 500 µg/mL | > 500 µg/mL | > 500 µg/mL | > 500 µg/mL | > 500 µg/mL | > 500 µg/mL | > 500 µg/mL | > 500 µg/mL | > 500 µg/mL | > 500 µg/mL | bacterial growth (OD600 growth curves) [10]: little effect |
| c1ccc(-c2ccccn2)nc1 [DIP, 2,2-dipyridyl] | – | – | 64 µg/mL | 64 µg/mL | 64 µg/mL | 64 µg/mL | 500 µg/mL | 250 µg/mL | 250 µg/mL | 250 µg/mL | 500 µg/mL | 250 µg/mL | 32 µg/mL | 32 µg/mL | 64 µg/mL | 64 µg/mL | 250 µg/mL | 125 µg/mL | 250 µg/mL | 250 µg/mL | bacterial growth (OD600 growth curves) [10]: reduced bacterial growth to a significant extent |
| CO[C@H]1/C=C/O[C@@]2(C)Oc3c(C)c(O)c4c(O)c(c(/C=N/N5CCN(C)CC5)c(O)c4c3C2=O)NC(=O)/C(C)=C\C=C\[C@H](C)[C@H](O)[C@@H](C)[C@@H](O)[C@@H](C)[C@H](OC(C)=O)[C@@H]1C [Rifampin] | no reduction of bacteria | did not result in a reduction of bacteria | – | – | – | – | – | – | – | – | – | – | – | – | – | – | – | – | – | – | CFU/mL at 24 hours (E. coli EC35218): about 1×10^7 CFU/mL; time until antibiotic-resistant strains develop [11]: less than one day |

From US10064858B2, “Methods and compositions for treating bacterial infections with iron chelators” (THE UNITED STATES OF AMERICA, AS REPRESENTED BY THE …, priority 2011, dated 2018)
